Data as given in the supplement of paper PMC10307832.

What was measured:
Test in all cases: relative viability (nuclei count vs DMSO), 5 days (fraction); higher = more cells survive
AZD5582 + Lapatinib = compound: C[C@@H](C(=O)N[C@@H](C1CCCCC1)C(=O)N2CCC[C@H]2C(=O)N[C@@H]3[C@@H](CC4=CC=CC=C34)OCC#CC#CCO[C@@H]5CC6=CC=CC=C6[C@@H]5NC(=O)[C@@H]7CCCN7C(=O)[C@H](C8CCCCC8)NC(=O)[C@H](C)NC)NC [AZD5582] + CS(=O)(=O)CCNCc1ccc(-c2ccc3ncnc(Nc4ccc(OCc5cccc(F)c5)c(Cl)c4)c3c2)o1 [Lapatinib] (partner 2 µM)
Summary of the method: (§1)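 Each reported value is a median over duplicate plates. It expresses relative viability: treated-well nuclei count divided by vehicle-well nuclei count. Lung cancer cell lines in 1536-well plates were dosed by pin tool a day after seeding, alone with one drug or with a fixed anchor-drug dose plus five library-drug doses (not always all listed) in √10 steps, and nuclei were counted after 5 days.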

[1] = compound: Cn1nnc2c(C(N)=O)ncn2c1=O [Temozolomide] + Cc1cc(Nc2cc(N3CCN(C)CC3)nc(Sc3ccc(NC(=O)C4CC4)cc3)n2)n[nH]1 [Tozasertib] (partner 0.1 µM)
Summary of the method: as §1

Temozolomide + Alpelisib = compound: Cn1nnc2c(C(N)=O)ncn2c1=O [Temozolomide] + Cc1nc(NC(=O)N2CCC[C@H]2C(N)=O)sc1-c1ccnc(C(C)(C)C(F)(F)F)c1 [Alpelisib] (partner 2 µM)
Summary of the method: as §1

Temozolomide + Olaparib = compound: Cn1nnc2c(C(N)=O)ncn2c1=O [Temozolomide] + O=C(c1cc(Cc2n[nH]c(=O)c3ccccc23)ccc1F)N1CCN(C(=O)C2CC2)CC1 [Olaparib] (partner 8 µM)
Summary of the method: as §1

Cell Line | relative viability (AZD5582 + Lapatinib; first compound 0.001581 µM) | relative viability (AZD5582 + Lapatinib; first compound 0.005 µM) | relative viability (AZD5582 + Lapatinib; first compound 0.01581 µM) | relative viability (AZD5582 + Lapatinib; first compound 0.05 µM) | relative viability ([1]; first compound 0.2 µM) | relative viability ([1]; first compound 0.6325 µM) | relative viability ([1]; first compound 2 µM) | relative viability ([1]; first compound 6.325 µM) | relative viability ([1]; first compound 20 µM) | relative viability (Temozolomide + Alpelisib; first compound 0.2 µM) | relative viability (Temozolomide + Alpelisib; first compound 0.6325 µM) | relative viability (Temozolomide + Alpelisib; first compound 2 µM) | relative viability (Temozolomide + Alpelisib; first compound 6.325 µM) | relative viability (Temozolomide + Alpelisib; first compound 20 µM) | relative viability (Temozolomide + Olaparib; first compound 0.2 µM) | relative viability (Temozolomide + Olaparib; first compound 0.6325 µM) | relative viability (Temozolomide + Olaparib; first compound 2 µM) | relative viability (Temozolomide + Olaparib; first compound 6.325 µM) | relative viability (Temozolomide + Olaparib; first compound 20 µM)
NCI-H1734 | 1.03 | 1.2 | 0.99 | 1.23 | 0.305 | 0.251 | 0.242 | 0.284 | 0.278 | 0.7 | 0.638 | 0.747 | 0.646 | 0.659 | 0.708 | 0.586 | 0.577 | 0.614 | 0.373
NCI-H1755 | 1.01 | 1.08 | 0.95 | 1.03 | 0.579 | 0.549 | 0.58 | 0.594 | 0.528 | 0.972 | 0.952 | 0.853 | 0.881 | 0.59 | 0.905 | 0.85 | 0.926 | 0.829 | 0.568
NCI-H1793 | 0.777 | 0.898 | 0.592 | 0.838 | – | 0.31 | 0.45 | 0.325 | 0.301 | – | 0.714 | 0.881 | 0.716 | 0.585 | – | 0.943 | 1.07 | 0.685 | 0.506
NCI-H1915 | 0.923 | 1.02 | 0.873 | 0.89 | 0.482 | 0.417 | 0.471 | 0.317 | 0.268 | 1.05 | 1.02 | 0.905 | 0.625 | 0.335 | 0.272 | 0.234 | 0.238 | 0.212 | 0.151
NCI-H1944 | 0.767 | 0.961 | 0.82 | 0.882 | 0.241 | 0.273 | 0.327 | 0.284 | 0.257 | 0.654 | 0.808 | 0.946 | 0.786 | 0.624 | 0.428 | 0.38 | 0.377 | 0.315 | 0.27
NCI-H1975 | 1.01 | 1.21 | 0.836 | 1.2 | 0.975 | 0.718 | 0.823 | 0.699 | 0.737 | 0.711 | 0.712 | 0.718 | 0.642 | 0.676 | 0.779 | 0.77 | 0.798 | 0.744 | 0.699
NCI-H1993 | 0.792 | 0.82 | 0.78 | 0.843 | 0.566 | 0.618 | 0.616 | 0.577 | 0.639 | 0.678 | 0.734 | 0.742 | 0.693 | 0.64 | 0.913 | 1.34 | 1.2 | 0.94 | 0.836
NCI-H2009 | 0.632 | 0.861 | 0.452 | 0.62 | 0.821 | 0.722 | 0.766 | 0.762 | 0.735 | 1.15 | 1.17 | 1.21 | 1.11 | 1.24 | 0.723 | 0.671 | 0.717 | 0.641 | 0.499
NCI-H2023 | 0.64 | 1.15 | 0.553 | 0.462 | 0.427 | 0.361 | 0.344 | 0.359 | 0.403 | 0.544 | 0.608 | 0.531 | 0.624 | 0.596 | 0.539 | 0.444 | 0.463 | 0.373 | 0.26
NCI-H2085 | 0.667 | 0.818 | 0.654 | 0.731 | 0.735 | 0.784 | 0.86 | 0.817 | 0.855 | 1.01 | 0.927 | 0.994 | 1.1 | 0.953 | 0.773 | 0.765 | 0.797 | 0.677 | 0.491
NCI-H2087 | 0.929 | 1.06 | 0.808 | 1.08 | 0.273 | 0.219 | 0.292 | 0.286 | 0.25 | 1.26 | 1.05 | 1.15 | 1.12 | 1.11 | 0.698 | 0.723 | 0.698 | 0.502 | 0.378
NCI-H2126 | 0.845 | 0.854 | 0.719 | 0.75 | 0.767 | 0.864 | 0.909 | 0.782 | 0.87 | 0.703 | 0.753 | 0.799 | 0.744 | 0.752 | 0.875 | 0.903 | 0.852 | 0.921 | 0.831
NCI-H2170 | 0.278 | 0.288 | 0.293 | 0.274 | – | 0.75 | 0.756 | 0.668 | 0.405 | – | 0.796 | 0.849 | 0.607 | 0.4 | – | 0.514 | 0.466 | 0.245 | 0.137
NCI-H2228 | 0.614 | 0.739 | 1.05 | 0.34 | 0.246 | 0.322 | 0.206 | 0.212 | 0.251 | 0.77 | 0.721 | 0.516 | 0.813 | 0.679 | 0.95 | 0.671 | 0.363 | 0.697 | 0.479
NCI-H2347 | 0.882 | 0.944 | 0.818 | 0.712 | 0.496 | 0.552 | 0.579 | 0.544 | 0.576 | 1.06 | 1.1 | 1.21 | 1.02 | 0.989 | 0.59 | 0.538 | 0.614 | 0.603 | 0.472
NCI-H2405 | 1.11 | 1.21 | – | 1.01 | 0.716 | 0.722 | 0.791 | 0.72 | 0.776 | 0.405 | 0.819 | 0.891 | 0.734 | 0.738 | 0.896 | 0.831 | 0.998 | 0.832 | 0.492
NCI-H3122 | 0.966 | 1.1 | 1.05 | 0.413 | 0.257 | 0.482 | 0.47 | 0.356 | 0.46 | 0.75 | 0.776 | 0.795 | 0.73 | 0.663 | 0.631 | 0.533 | 0.654 | 0.51 | 0.334
